In patent publication US8410116B2, “Bis(styryl)pyrimidine or bis(styryl)benzene compounds, pharmaceutically acceptable salts thereof, preparation method thereof, and pharmaceutical composition for prevention or treatment of diseases featuring amyloids comprising the same as an active ingredient” (Korea Institute of Science and Technology, priority 2009, dated 2013):

Experiments:
[1] = system: beta amyloid (1-42) injected mice; test: Cognitive performance task, acute Alzheimer's disease model; assay type: in vivo; set-up: Cognition % of control: concentration or dose not given beside the values; settings: for Cognition Preference (investigation time for new matter/total investigation time): mice i.c.v. injected with beta amyloid (1-42), test on Days 2 and 3; for Cognition % of control: preference relative to control mice
Experimental: (§1) Mice 4-5 weeks old, each weighing 20˜25 g, were divided into groups of six. Intracerebroventricular injection was performed with a 50 μl Hamilton microsyringe fitted with a disposable 26-gauge needle as described by Laursen and Belknap (Laursen & Belknap, J. Pharmacol. Methods. 1986, 16, 355). It was inserted 2.4 mm deep into the bregma. All samples were administered to groups of 10 via oral routes or food pellets. After the intracerebroventricular injection, the compounds of the present invention were administered for 2 days to the mice which were then subjected to the Y-maze test on Day 2, the cognition test on Days 2 and 3, the passive avoidance test on Days 3 and 4, and the water maze test on Days 3 to 7. All data were averages of 6 measurements (mice).
(§2) For the cognitive performance task, two identical substances were respectively placed 5 cm apart from two corners and the time it took for a mouse to investigate the given and new substances was measured. Investigation was defined as the condition in which a mouse sniffed with the head directing toward the substance within a diameter of 2 cm or touched the substance.

[2] = system: beta amyloid (1-42) injected mice; test: Passive avoidance test, acute Alzheimer's disease model; assay type: in vivo; set-up: Passive Avoidance % of control: concentration or dose not given beside the values; settings: for Passive Avoidance % of control: latency relative to control mice; for Passive Avoidance Latency: mice i.c.v. injected with beta amyloid (1-42), test on Days 3 and 4, 24 hours after training
Experimental: as §1
(§3) A passive avoidance test was performed as described in the literature (Song et al. J. Neurochem., 1998, 71, 875). Used was a passive avoidance box which was divided into two compartments: a lighted one and a dark one, separated by an automatic guillotine door. For training, mice were placed in the lighted compartment and electrically shocked with 0.25 mA for 1 sec whenever they entered the darkened compartment. 24 hours after training, the mice were placed in the lighted compartment and measured for latency time before entering the darkened compartment.

[3] = system: beta amyloid (1-42) injected mice; test: Water maze test, acute Alzheimer's disease model; assay type: in vivo; settings: mice injected with beta amyloid (1-42), Days 3 to 7
Experimental: as §1
In a water maze test, a mouse, when released from a randomly selected quadrant on each trial, was allowed to swim around the pool in search of an exit while the time taken to reach the platform (latency) was recorded.

[4] = system: HT-22 cells incubated with beta amyloid (Aβ25-35); test: Alleviating effect on beta amyloid toxicity in HT-22 cells (MTT); assay type: cell-based, murine; settings: Mus musculus, compound pre-incubated 1 hr, then 25 μM beta amyloid (Aβ25-35) for 18 hrs, Aβ25-35 line = toxin alone, read-out: Cell Survival (%)
Experimental: (§4) The murine hippocampal neuronal cell line HT-22 was incubated at 37° C. in DMEM (Dulbecco's Modified Eagle's Medium) supplemented with 10% FBS (fetal bovine serum) and 1% penicillin/streptomycin in a 5% CO2 incubator. Before testing, HT-22 cells were seeded at a density of 5×10^3 cells/well onto 96-well plates containing serum-free DMEM and incubated for 1 hr. Afterwards, each of the compounds of Examples 1 to 27 was added at a concentration of 25 μM to each well before incubation for 18 hrs. 5 mg/ml MTT (3-(4,5-dimethyl-2-thiozolyl)-2,5-diphenyl-2H-tetrazolium bromide) solution was added in an amount of 15 μl per well and incubated for 4 hrs. A solubilization solution (10% SDS, 50% dimethylformamide, pH 4.7) was added in an amount of 100 μl to each well, followed by incubation for 18 hrs. Absorbance at 570 nm/630 nm was read on a microplate reader.
The following experiment was performed in order to examine the ability of the compounds of the Examples in accordance with the present invention to alleviate beta amyloid toxicity. HT-22 cells were cultured and incubated with the compounds of Examples 1 to 27 for 1 hr in the same manner as in Example 2. Cell necrosis was induced by beta amyloid toxicity. For this, the cells were incubated with 25 μM of beta amyloid (Aβ25-35) for 18 hrs. Subsequently, a 5 mg/ml MTT solution was added in an amount of 15 μl to each well, followed by incubation for 4 hrs. Then, the cells were again incubated for 18 hrs with 100 μl/well of the solubilization solution. Absorbance at 570 nm/630 nm was read on a microplate reader.

[5] = system: beta amyloid (1-42) injected mice; test: Y-maze task, acute Alzheimer's disease model; assay type: in vivo; settings: mice i.c.v. injected with beta amyloid (1-42), compounds administered for 2 days, test on Day 2
Experimental: as §1
(§5) Short-term memory was assessed by spontaneous alternation behavior in the Y-maze task. Spontaneous alternation behavior is considered to reflect spatial working memory, which is a form of short-term memory. A mouse was placed in one arm of a Y-maze and allowed to freely pass the three arms for 8 min. Spontaneous alternation behavior was defined as successive entries into the three arms. Percentage spontaneous alternation was calculated as the ratio of actual to possible alternations […], multiplied by 100.

[6] = system: beta amyloid (1-42) injected mice; test: Behavior tests with acute AD model taken together (Y-maze, cognitive performance, passive avoidance); assay type: in vivo; settings: data of Table 6, with statistical significance
Experimental: as §1, §5, §2, §3

HT-22 cells = test: Cytotoxicity in HT-22 cell (MTT); assay type: cell-based, murine; settings: compound 25 μM, 18 hrs
Experimental: The following experiment was performed with HT-22 cells in order to examine the cytotoxicity of the compounds of the Examples in accordance with the present invention.
as §4

beta amyloid (1-42) = beta amyloid (1-42) (Homo sapiens, UniProt P05067); test: Inhibitory activity against beta amyloid fibril formation (ThT fluorescence); assay type: biochemical; settings: for remaining activity at 10 µM: compound 10 μM, beta amyloid (1-42) 25 μM, 1 hr room temperature, beta amyloid alone (control) = 100
Experimental: The compounds of the present invention were assayed for inhibitory activity against the formation of beta amyloid fibrils as a function of ThT fluorescence intensity as follows. Beta amyloid (1-42) and each of the compounds of Examples 1 to 27 were dissolved in DMSO and diluted with PBS (phosphate-buffered saline, pH 7.4). The final concentrations of beta amyloid (1-42) (control) and each of the compounds of Examples 1 to 27 were set at 25 μM and 10 μM, respectively. The dilutions were incubated at room temperature for 1 hr before a solution of thioflavin T (ThT, 5 μM, pH 8.5) in glycin-NaOH buffer was added thereto. Fluorescence was measured at 450 nm for excitation (slit 10 nm) and […] for emission (slit 10 nm) on 96-well microplates using a multilabel fluorescence counter.

Chain of beta amyloid (1-42) (P05067 672-713 limits assumed): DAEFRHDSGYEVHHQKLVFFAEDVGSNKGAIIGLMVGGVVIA

Row | Compound | Recovery of preference for the new matter ([1]; compared to beta amyloid (1-42) injected mice, % of control) | Cognition Preference (investigation time for new matter/total investigation time) [1] | Cognition % of control [1] | Passive Avoidance % of control [2] | Passive Avoidance Latency [2] | Spatial learning ability in water maze (latency over sessions), FIG. 1 [3] | viability at 25 µM [4] | Y-Maze Spontaneous Alternation (%) [5] | Memory and learning of beta amyloid (1-42) injected mice (in words) [6] | Cell Survival (%) (HT-22 cells) | remaining activity at 10 µM (beta amyloid (1-42)) | Inhibitory activity against fibril formation (in words) (beta amyloid (1-42); Table 3) | Reduction of preference for the new matter compared to the control ([1]; beta amyloid (1-42) injected mice) | Passive Avoidance % of control ([2]; listed as beta amyloid (1-42))
1 | COc1cc(/C=C/c2cc(/C=C/c3ccc(O)c(OC)c3)ncn2)ccc1O [Ex. 6, (E,E)-4,6-bis(4′-hydroxy-3′-methoxystyryl)pyrimidine] | about 11% | 0.61 ± 0.03 | 95% | 78.1% | 139.2 s | recover spatial learning ability | 103 ± 13% | 67.9% | increased memory | 215.6 ± 3.5% | 20.7 ± 5.4% |  |  | 
2 | CN(C)c1ccc(/C=C/c2cc(/C=C/c3ccc(N(C)C)c(O)c3)ncn2)cc1O [Ex. 7, (E,E)-4,6-bis[3′-hydroxy-4′-(N,N-dimethylamino)styryl]pyrimidine] |  | 0.57 ± 0.02 | 89% | 68.7% | 122.5 s | recover spatial learning ability | 76.6 ± 12.1% | 67.0% | increased memory | 132.8 ± 41.1% | 6.3 ± 1.8% | remarkable inhibitory activity |  | 
3 | Aβ1-42: beta amyloid peptide of 42 amino acids, injected intracerebroventricularly into mice to induce acute Alzheimer's disease [reference compound] |  | 0.54 ± 0.02 | 84% | 50.4% | 89.9 s | deficient in spatial memory |  | 61.6% |  |  |  |  | about 16% | about 50%
4 | CN(C)c1cc(/C=C/c2cc(/C=C/c3ccc(O)c(N(C)C)c3)ncn2)ccc1O [Ex. 2, (E,E)-4,6-Bis[4′-hydroxy-3′-(N,N-dimethylamino)styryl]pyrimidine] |  | 0.53 ± 0.05 | 82% | 66.1% | 117.8 s | recover spatial learning ability | 85.3 ± 0.1% | 71.3% | increased memory | 146.2 ± 26.6% | 16.5 ± 2.6% |  |  | 
